Assay results from patent US8999957B2, “Heterocyclic compounds as ERK inhibitors” (Merck Sharp & Dohme Corp., priority 2010, dated 2015).
“And” between values parts separate entries of the source, which are not always exact repeats. Equal values may be shown once.

What follows are compounds tested against fully phosphorylated, mouse aERK2 enzyme (Mus musculus (Mouse), UniProt P63085) (assay: Active ERK2 (aERK) IMAP-FP assay, condition 2). Details: active ERK2; read-out: aErk2 Ic50.
Assay type: biochemical
Summary of the method: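 Phosphorylation by fully phosphorylated mouse ERK2 ran 40-45 min, then quenched with IMAP beads (1:1000) in binding buffer; fluorescence polarization read after 30 min binding equilibration.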

Sequence of fully phosphorylated, mouse aERK2 enzyme (P63085 whole entry): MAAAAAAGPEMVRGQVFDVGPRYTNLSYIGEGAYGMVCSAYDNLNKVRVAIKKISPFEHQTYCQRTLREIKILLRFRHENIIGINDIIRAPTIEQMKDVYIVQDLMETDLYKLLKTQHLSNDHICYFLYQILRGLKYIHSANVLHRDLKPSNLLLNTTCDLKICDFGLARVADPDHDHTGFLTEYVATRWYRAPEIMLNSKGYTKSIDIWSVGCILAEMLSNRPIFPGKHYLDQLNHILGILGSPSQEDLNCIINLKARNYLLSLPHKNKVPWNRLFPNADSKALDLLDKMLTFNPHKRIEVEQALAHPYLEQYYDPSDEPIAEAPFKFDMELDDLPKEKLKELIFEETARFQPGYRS

Compound | IC50
COC(=O)N1CCN(C(=O)[C@@H]2CC[C@@H](NC(=O)c3ccc4[nH]nc(-c5ccnc(C)c5)c4c3)CN2Cc2c(F)cccc2OC)CC1 [methyl 4-{[(2S,5R)-1-(2-fluoro-6-methoxy-benzyl)-5-({[3-(2-methylpyridin-4-yl)-1H-indazol-5-yl]carbonyl}amino)piperidin-2-yl]carbonyl}piperazine-1-carboxylate] | 17.9 nM
COc1cccc(F)c1CN1C[C@H](NC(=O)c2ccc3[nH]nc(-c4ccnc(C)c4)c3c2)CC[C@H]1C(=O)N1CCN(C(=O)OC(C)(C)C)CC1 [tert-butyl 4-{[(2S,5R)-1-(2-fluoro-6-methoxy-benzyl)-5-({[3-(2-methylpyridin-4-yl)-1H-indazol-5-yl]carbonyl}amino)piperidin-2-yl]carbonyl}piperazine-1-carboxylate] | 7 nM
COc1cccc(F)c1CN1C[C@H](NC(=O)c2ccc3[nH]nc(-c4ccnc(C)c4)c3c2)CC[C@H]1C(=O)NCCNC(=O)OC(C)(C)C [tert-butyl [2-({[(2S,5R)-1-(2-fluoro-6-methoxybenzyl)-5-({[3-(2-methylpyridin-4-yl)-1H-indazol-5-yl]carbonyl}amino)piperidin-2-yl]carbonyl}amino)ethyl]carbamate] | 18.9 nM
COc1cccc(F)c1CN1C[C@H](NC(=O)c2ccc3[nH]nc(-c4ccnc(C)c4)c3c2)CC[C@H]1C(=O)N(C)CCCCNC(=O)OC(C)(C)C [tert-butyl {4-[{[(2S,5R)-1-(2-fluoro-6-methoxybenzyl)-5-({[3-(2-methylpyridin-4-yl)-1H-indazol-5-yl]carbonyl}amino)piperidin-2-yl]carbonyl}(methyl)amino]butyl}carbamate] | 90.3 nM

The next lines start with the values.

IC50 | Compound
16.9 nM | COc1cccc(F)c1CN1C[C@H](NC(=O)c2ccc3[nH]nc(-c4ccnc(C)c4)c3c2)CC[C@H]1C(=O)NCCCNC(=O)OC(C)(C)C [tert-butyl [3-({[(2S,5R)-1-(2-fluoro-6-methoxybenzyl)-5-({[3-(2-methylpyridin-4-yl)-1H-indazol-5-yl]carbonyl}amino)piperidin-2-yl]carbonyl}amino)propyl]carbamate]
18.8 nM | COc1cccc(F)c1CN1C[C@H](NC(=O)c2ccc3[nH]nc(-c4ccnc(C)c4)c3c2)CC[C@H]1C(=O)N1CCN(C(=O)OC2CCOCC2)CC1 [tetrahydro-2H-pyran-4-yl 4-{[(2S,5R)-1-(2-fluoro-6-methoxybenzyl)-5-({[3-(2-methylpyridin-4-yl)-1H-indazol-5-yl]carbonyl}amino)piperidin-2-yl]carbonyl}piperazine-1-carboxylate]
20.2 nM and 30 nM | N-{(3R,6S)-1-(2-fluoro-6-methoxybenzyl)-6- [(2-methylhydrazino)carbonyl]piperidin-3- yl}-3-(2-methylpyridin-4-yl)-1H-indazole-5- carboxamide
